Values quoted from earlier work, collected in patent EP0986632B1, “DELIVERY SYSTEMS” (THE PROCTER & GAMBLE COMPANY, priority 1997, dated 1998).

Conditions: 25°C; from M. L. Tobe, Adv. Inorg Bioinorg. Mech. (1983), 2, Table 1 at page 17

Molecule | base hydrolysis rates (kOH)
N#CS [NCS^-] | 0.0005 M⁻¹ s⁻¹
CC(=O)O [acetate] | 0.00096 M⁻¹ s⁻¹
O=CO [formate] | 0.00058 M⁻¹ s⁻¹
oxalate | 0.00025 M⁻¹ s⁻¹
